BindingDB's records for doi:10.1158/0008-5472.can-03-3344 (St. Jude Children'S Research Hospital, 2004)

Test: TP_TRANSPORTER: drug resistance(Imatinib mesylate) in BCRP-expressing SaoS2 cells

For `CCc1c2c(nc3ccc(O)cc13)-c1cc3c(c(=O)n1C2)COC(=O)[C@]3(O)CC` [7-ETHYL-10-HYDROXY-CAMPTOTHECIN], the IC50 was 176 nM.
